Laboratory results reported in patent US4211794A, “N,N-Disubstituted aminomethylphenylethanolamines” (Pfizer Inc., priority 1979, dated 1980).

Assays:
[1] = system: encephalomyocarditis (EMC) virus; experiment: Prophylactic use against encephalomyocarditis (EMC) viral infection in mice; format: in vivo, mice (female albino); settings: single intraperitoneal, 18-24 hours before EMC challenge, tenth day after challenge, average of 2 runs
Experimental: Prophylactic use of compounds (1-I), (2-I) and (3-I) against infection by encephalomyocardis viral infection in mice
Three groups of ten female albino micce (20-25 g. body weight) were given single 0.5 ml. intraperitoneal injections containing dosage levels of 1.5, 5, and 15 mg. of the appropriate compound/kg. body weight, respectively. A fourth control group was given no such injection. Eighteen to twenty-four hours later all four groups were challenged with a 0.2 ml. subcutaneous injection containing 20-30 times the LD50, the dosage level causing a 50% death rate in ten days, of encephalomyocarditis (EMC) virus. The following relative average survival rates were found from an average of 2 such runs for compounds 1-I, 2-I and 3-I.
Antiviral activity is expressed as the average relative survival (Sr) of 2 runs of experimental groups compared to the controls on the tenth day after challenge. Sr is defined by the formula [formula] wherein Sr=relative survival;
Sx =percent survival after ten days in experimental group;
Xi =number of survivors on the ith day in experimental group;
ei =number of survivors on the ith day in control group.

B-16 cells = experiment: Peritoneal Exudate Cell Mediated Cytotoxicity in Vitro (macrophages from drug-injected mice); format: cell-based; settings: Mus musculus, B16, effector:target 15:1, 24 hours at 37°, read-out: % Cytotoxicity (percent release drug-treated minus vehicle treated); for cytotoxicity at 1 mg/kg: 1 mg/kg injected to mice; for cytotoxicity at 5 mg/kg: 5 mg/kg injected to mice; for cytotoxicity at 25 mg/kg: 25 mg/kg injected to mice
Experimental: Peritoneal Exudate Cell Mediated Cytotoxicity in Vitro
Peritoneal exudate cells (PEC) from normal mice injected with immune potentiators or drug vehicle were harvested by gentle lavage with 3 ml cold RPMI 1640 medium (Grand Island Biological Co., N.Y.) supplemented with 5 units of heparin per ml of medium. Macrophages were identified morphologically, counted, and adjusted to 7.5×10^5 cells per ml of tissue culture medium; 0.2 ml volumes were added to microtiter wells containing 10^4 B-16 cells with ^125 IUDR label (effector: target cell ratio=15:1). After 24 hours at 37° in 5% CO2, supernatants were decanted and the adherent cells washed 3 times with pre-warmed RPMI 1640; the supernatant and washings were pooled and retained for counting. The adherent cells were treated with 1% sodium dodecyl sulfate (SDS) at room temperature for 30 minutes. The SDS-treated cells were harvested and the cells washed 3 times with RPMI 1640; cells and washings were pooled for counting. Supernatants and cells were counted in a Searle 1185 gamma counter. Results were expressed as: [formula]
The table below gives the percent cytotoxicity for 1-I, 2-I and 3-I wherein Percent Cytotoxicity equals (Percent release from drug-treated) minus (Percent release from vehicle treated).

Sarcoma 180J = Sarcoma 180J Model for Assessment of Tumor Rejection; format: in vivo, CD-1 mice (female); settings: for %ILS (percent life span): day 1 after 10^6 S-180J cells i.p., observed until death or 40 days, TWEEN 80/glycerol aqueous suspension; for numbers of 40 day survivors: six mice per group
Experimental: Sarcoma 180J Model for Assessment of Tumor Rejection
Six female CD-1 mice (20-25 g) per group received 10^6 S-180J cells (5-8 days old) intraperitoneally (i.p.) on day O. The animals then received formulated drug (0.1 ml) at the desired dose on day 1 following tumor cell injection. The animals were observed until death or 40 days, whichever occurred first. Results using compounds 1-I, 2-I, 3I and 4I are expressed as percent life span (% ILS).
^ a compounds were formulated in TWEEN 80/glycerol aqueous
^b Numbers in parenthesis are numbers of 40 day survivors.

Row | SMILES | Average Relative Survival (Sr) ([1]; 1.5 mg/kg) | Average Relative Survival (Sr) ([1]; 5 mg/kg) | Average Relative Survival (Sr) ([1]; 15 mg/kg) | cytotoxicity at 1 mg/kg (B-16 cells) | cytotoxicity at 5 mg/kg (B-16 cells) | cytotoxicity at 25 mg/kg (B-16 cells) | %ILS (percent life span) (Sarcoma 180J; 5 mg/kg) | numbers of 40 day survivors (Sarcoma 180J; 5 mg/kg) | %ILS (percent life span) (Sarcoma 180J; 15 mg/kg) | numbers of 40 day survivors (Sarcoma 180J; 15 mg/kg) | %ILS (percent life span) (Sarcoma 180J; 50 mg/kg) | numbers of 40 day survivors (Sarcoma 180J; 50 mg/kg)
1 | CCCCCCCCCCCCCCCCN(CCCCCCCCCCCCCCCC)Cc1cccc(C(O)CNCC)c1 (stereo not shown) [Compound 1-I, N-ethyl-2-[meta-N,N-di-n-hexadecylaminomethylphenyl]ethanolamine] | 24.5 | 65.5 | 70 | 35.7% | 25.6% | 23.8% | 150% | 1 | 210% | 4 | 235% | 5
2 | CCCCCCCCCCCCCCCCN(CCCCCCCCCCCCCCCC)Cc1cccc(C(O)CNC(C)(C)C)c1 (stereo not shown) [Compound 2-I, N-t-butyl-2-[meta-N,N-di-n-hexadecylamino-methylphenyl]ethanolamine] | 42.5 | 62.5 | 65.5 | 31.2% | 33.6% | 27.2% | 154% | 1 | 134% |  | 160% | 2
3 | CCCCCCCCCCCCCCCCN(CCCCCCCCCCCCCCCC)Cc1cccc(C(O)CNC(C)C)c1 (stereo not shown) [Compound 3-I, N-isopropyl-2-[meta-N,N-di-n-hexadecylaminomethylphenyl]ethanolamine] | 27 | 54 | 87.5 | 42.4% | 35.1% | 33.4% | 154% | 2 | 185% | 4 | 212% | 6
4 | CCCCCCCCCCCCCCCCN(CCCCCCCCCCCCCCCC)Cc1cccc(C(O)CN)c1 (stereo not shown) [Compound 4-I, 2-[meta-N,N-di-n-hexadecylaminomethylphenyl]ethanolamine] |  |  |  |  |  |  | 125% |  | 181% | 4 | 212% | 6
